According to ChEMBL document CHEMBL5303573, “Mapping human microbiome drug metabolism by gut bacteria and their genes” (Nature, 2019):

Columns and labels:
[1] = The drug is tested on Ruminococcus gnavus strain: ATCC29149 for biotransformation. The drug concentrations were measured before and after a 12-h incubation by liquid-chromatography-coupled mass spectrometry (LC–MS); settings: mediterraneibacter gnavus, 2 µM
[2] = bacteroides thetaiotaomicron, 12 h, 2 µM
Description: The drug is tested on Bacteroides thetaiotaomicron strain: 7330 for biotransformation. The drug concentrations were measured before and after a 12-h incubation by liquid-chromatography-coupled mass spectrometry (LC–MS)

[3] = roseburia intestinalis, 12 h, 2 µM
Description: The drug is tested on Roseburia intestinalis strain: L1-82 for biotransformation. The drug concentrations were measured before and after a 12-h incubation by liquid-chromatography-coupled mass spectrometry (LC–MS)

[4] = The drug is tested on Clostridium symbiosum strain: ATCC14940 for biotransformation. The drug concentrations were measured before and after a 12-h incubation by liquid-chromatography-coupled mass spectrometry (LC–MS); settings: 2 µM
[5] = The drug is tested on Bacteroides ovatus strain: ATCC8483 for biotransformation. The drug concentrations were measured before and after a 12-h incubation by liquid-chromatography-coupled mass spectrometry (LC–MS); settings: 2 µM
[6] = anaerostipes sp., 12 h, 2 µM
Description: The drug is tested on Anaerostipes sp. strain: fecal isolate for biotransformation. The drug concentrations were measured before and after a 12-h incubation by liquid-chromatography-coupled mass spectrometry (LC–MS)

[7] = The drug is tested on Enterobacter cancerogenus strain: ATCC35316 for biotransformation. The drug concentrations were measured before and after a 12-h incubation by liquid-chromatography-coupled mass spectrometry (LC–MS); settings: 2 µM
[8] = The drug is tested on Clostridium sp. strain: fecal isolate for biotransformation. The drug concentrations were measured before and after a 12-h incubation by liquid-chromatography-coupled mass spectrometry (LC–MS); settings: 2 µM
[9] = The drug is tested on Edwardsiella tarda strain: ATCC23685 for biotransformation. The drug concentrations were measured before and after a 12-h incubation by liquid-chromatography-coupled mass spectrometry (LC–MS); settings: 2 µM
[10] = The drug is tested on Blautia hansenii strain: DSM20583 for biotransformation. The drug concentrations were measured before and after a 12-h incubation by liquid-chromatography-coupled mass spectrometry (LC–MS); settings: 2 µM
[11] = segatella copri, 12 h, 2 µM
Description: The drug is tested on Prevotella copri strain: DSM18205 for biotransformation. The drug concentrations were measured before and after a 12-h incubation by liquid-chromatography-coupled mass spectrometry (LC–MS)

[12] = The drug is tested on Bacteroides cellulosilyticus strain: DSM14838 for biotransformation. The drug concentrations were measured before and after a 12-h incubation by liquid-chromatography-coupled mass spectrometry (LC–MS); settings: 2 µM
[13] = The drug is tested on Ruminococcus torques strain: ATCC27756 for biotransformation. The drug concentrations were measured before and after a 12-h incubation by liquid-chromatography-coupled mass spectrometry (LC–MS); format: ADME; parameters: dose 2 uM, timepoint 0 vs 12 hours; settings: 2 µM
[14] = bacteroides fragilis, 12 h, 2 µM
Description: The drug is tested on Bacteroides fragilis strain: DS-208 for biotransformation. The drug concentrations were measured before and after a 12-h incubation by liquid-chromatography-coupled mass spectrometry (LC–MS)

[15] = bacteroides stercoris, 12 h, 2 µM
Description: The drug is tested on Bacteroides stercoris strain: ATCC43183 for biotransformation. The drug concentrations were measured before and after a 12-h incubation by liquid-chromatography-coupled mass spectrometry (LC–MS)

[16] = enterocloster bolteae, 12 h, 2 µM
Description: The drug is tested on Clostridium bolteae strain: ATCCBAA-613 for biotransformation. The drug concentrations were measured before and after a 12-h incubation by liquid-chromatography-coupled mass spectrometry (LC–MS)

[17] = The drug is tested on Bacteroides vulgatus strain: ATCC8482 for biotransformation. The drug concentrations were measured before and after a 12-h incubation by liquid-chromatography-coupled mass spectrometry (LC–MS); settings: phocaeicola vulgatus, 2 µM
[18] = The drug is tested on Bifidobacterium ruminantium strain: fecal isolate for biotransformation. The drug concentrations were measured before and after a 12-h incubation by liquid-chromatography-coupled mass spectrometry (LC–MS); settings: 2 µM
[19] = The drug is tested on Bacteroides pectinophilus strain: ATCC43243 for biotransformation. The drug concentrations were measured before and after a 12-h incubation by liquid-chromatography-coupled mass spectrometry (LC–MS); settings: 2 µM
[20] = The drug is tested on Eggerthella lenta strain: ATCC25559 for biotransformation. The drug concentrations were measured before and after a 12-h incubation by liquid-chromatography-coupled mass spectrometry (LC–MS); settings: 2 µM

Bacterial Biotransformation [1] | Bacterial Biotransformation [2] | Bacterial Biotransformation [3] | Bacterial Biotransformation [4] | Bacterial Biotransformation [5] | Bacterial Biotransformation [6] | Bacterial Biotransformation [7] | Bacterial Biotransformation [8] | Bacterial Biotransformation [9] | Bacterial Biotransformation [10] | Bacterial Biotransformation [11] | Bacterial Biotransformation [12] | Bacterial Biotransformation [13] | Bacterial Biotransformation [14] | Bacterial Biotransformation [15] | Bacterial Biotransformation [16] | Bacterial Biotransformation [17] | Bacterial Biotransformation [18] | Bacterial Biotransformation [19] | Bacterial Biotransformation [20] | SMILES
Compound metabolized | Compound metabolized | Compound metabolized | Compound metabolized | Compound NOT metabolized | Compound metabolized | Compound metabolized | Compound metabolized | Compound metabolized | Compound metabolized | Compound metabolized | Compound metabolized | Compound metabolized | Compound NOT metabolized | Compound metabolized | Compound metabolized | Compound metabolized | Compound metabolized | Compound metabolized | Compound metabolized | CC(Oc1c(Cl)cccc1Cl)C1=NCCN1 (stereo not given) [LOFEXIDINE]
Compound metabolized | Compound metabolized | Compound metabolized | Compound metabolized | Compound metabolized | Compound metabolized | Compound metabolized | Compound metabolized | Compound metabolized | Compound metabolized | Compound metabolized | Compound metabolized | Compound metabolized | Compound metabolized | Compound metabolized | Compound metabolized | Compound metabolized | Compound metabolized | Compound metabolized | Compound metabolized | COc1ccc2[nH]c([S+]([O-])Cc3ncc(C)c(OC)c3C)nc2c1 (stereo not given) [OMEPRAZOLE]
Compound metabolized | Compound metabolized | Compound metabolized | Compound metabolized | Compound metabolized | Compound metabolized | Compound metabolized | Compound metabolized | Compound metabolized | Compound metabolized | Compound metabolized | Compound metabolized | Compound metabolized | Compound metabolized | Compound metabolized | Compound metabolized | Compound metabolized | Compound metabolized | Compound metabolized | Compound metabolized | CC(=O)OCC(=O)[C@@]12N=C(C)O[C@@H]1C[C@H]1[C@@H]3CCC4=CC(=O)C=C[C@]4(C)[C@H]3[C@@H](O)C[C@@]12C [DEFLAZACORT]

More lines, now with the values behind:

SMILES | Bacterial Biotransformation [1] | Bacterial Biotransformation [2] | Bacterial Biotransformation [3] | Bacterial Biotransformation [4] | Bacterial Biotransformation [5] | Bacterial Biotransformation [6] | Bacterial Biotransformation [7] | Bacterial Biotransformation [8] | Bacterial Biotransformation [9] | Bacterial Biotransformation [10] | Bacterial Biotransformation [11] | Bacterial Biotransformation [12] | Bacterial Biotransformation [13] | Bacterial Biotransformation [14] | Bacterial Biotransformation [15] | Bacterial Biotransformation [16] | Bacterial Biotransformation [17] | Bacterial Biotransformation [18] | Bacterial Biotransformation [19] | Bacterial Biotransformation [20]
COc1ccccc1OCCNCC(O)COc1cccc2[nH]c3ccccc3c12 (stereo not given) [CARVEDILOL] | Compound NOT metabolized | Compound metabolized | Compound NOT metabolized | Compound NOT metabolized | Compound metabolized | Compound metabolized | Compound metabolized | Compound NOT metabolized | Compound NOT metabolized | Compound metabolized | Compound metabolized | Compound metabolized | Compound NOT metabolized | Compound metabolized | Compound metabolized | Compound NOT metabolized | Compound metabolized | Compound metabolized | Compound NOT metabolized | Compound NOT metabolized
C#C[C@]1(O)CC[C@H]2[C@@H]3CCC4=Cc5oncc5C[C@]4(C)[C@H]3CC[C@@]21C [DANAZOL] | Compound metabolized | Compound metabolized | Compound metabolized | Compound metabolized | Compound metabolized | Compound metabolized | Compound metabolized | Compound metabolized | Compound metabolized | Compound metabolized | Compound metabolized | Compound metabolized | Compound metabolized | Compound metabolized | Compound metabolized | Compound metabolized | Compound metabolized | Compound metabolized | Compound metabolized | Compound metabolized
N[C@@H](Cc1ccc(N(CCCl)CCCl)cc1)C(=O)O | Compound metabolized | Compound metabolized | Compound metabolized | Compound metabolized | Compound metabolized | Compound metabolized | Compound metabolized | Compound metabolized | Compound metabolized | Compound metabolized | Compound metabolized | Compound metabolized | Compound metabolized | Compound metabolized | Compound metabolized | Compound metabolized | Compound metabolized | Compound metabolized | Compound metabolized | Compound metabolized
CSc1ccc2c(c1)C(N1CCN(C)CC1)Cc1ccccc1S2.O=C(O)/C=C\C(=O)O (stereo not given) | Compound NOT metabolized | Compound NOT metabolized | Compound NOT metabolized | Compound NOT metabolized | Compound NOT metabolized | Compound metabolized | Compound NOT metabolized | Compound NOT metabolized | Compound NOT metabolized | Compound NOT metabolized | Compound metabolized | Compound NOT metabolized | Compound NOT metabolized | Compound NOT metabolized | Compound NOT metabolized | Compound NOT metabolized | Compound NOT metabolized | Compound NOT metabolized | Compound NOT metabolized | Compound NOT metabolized
CC(=O)Oc1ccc(C(c2ccc(OC(C)=O)cc2)c2ccccn2)cc1 [BISACODYL] | Compound metabolized | Compound metabolized | Compound metabolized | Compound metabolized | Compound metabolized | Compound metabolized | Compound metabolized | Compound metabolized | Compound metabolized | Compound metabolized | Compound metabolized | Compound metabolized | Compound metabolized | Compound metabolized | Compound metabolized | Compound metabolized | Compound metabolized | Compound metabolized | Compound metabolized | Compound metabolized
